Assay [1] has as its system rat model of myocardial ischemia. The experiment in a line: Rat model of myocardial ischemia and reperfusion. Format: in vivo, Sprague-Dawley rats. To be noted: given 15 minutes before occlusion; 45 minutes occlusion, 4 hours reperfusion. The source says: A rat model of ischemia and reperfusion was used to test the ability of compounds to reduce the volumes of infarction is considered a measure of their potential as cardioprotectors.
The following model of myocardial infarction and heart failure was used to test the ability of compounds to reduce the volumes of infarction is considered a measure of their potential as cardioprotectors.
The methods used are essentially as described in Leor and Kloner (Leor and Klonner, Am. J Cardiol. 75:1292–3 1995). The experiment was performed in a masked fashion. In brief, Sprague-Dawley rats were given either vehicle or PRS-211,095 15 minutes before occlusion. They were subjected to 45 minutes of coronary occlusion and 4 hours of reperfusion, after which the coronary artery was reoccluded and 0.25 ml of Unisperse™ dye was injected IV to determine area of risk (AR). The rats were euthanized and hearts were analyzed as to infarct size using a 1% solution of triphenylteuazolium chloride for 15 minutes at 37° C. The area of necrosis (AN) in each heart was expressed as a percentage of the area at risk. This was multiplied by the weight of each slice to obtain the mass of tissue at risk and necrosis.

The next assay deals with transient MCAo in rats. The experiment in a line: Transient MCAo evaluated by the staircase test. In kind it is in vivo, Sprague Dawley rats. To be noted: for staircase contralateral performance, pellet consumption (in words): administered 2 hours after start of MCAo. The source says: The test challenges fine motor, sensory and stereognostic function of the cortex in enabling the forepaw (hand) to identify, grasp and accurately manipulate small objects such as food pellets. Loss of the ability to identify, grasp and manipulate small objects reflects a lesion of the fronto-parietal cortex and is a common and crippling deficit after stroke in humans.
The materials for this procedure are identical to those from Physiological Example 5, except for the different concentrations of PRS-211,095. The procedural differences are as follows: • Male Sprague Dawley rats, 230–270 gr (Harlan, Israel) were used. The following compounds and their respective concentrations were tested:
Dexanabinol and analogs PRS-211,095 and PRS-211,220 in PEG ethanol cosolvent 50 mg/ml. Dexanabinol, the analogs and their vehicle were diluted in Intralipid® 20% (Pharmacia) prior to drug administration.
The procedure is essentially as described in Montoya et al. (Montoya, Campbell-Hope, Pemberton and Dunnet, J. Neurosci. Meth. 36:219–228,1991) Animals were kept under mild food deprivation for 3–5 days, receiving 15-gr. food once a day (between 16:00 and 17:00) and free access to water.
In brief, the staircase box contains two rows of seven stairs in each. Two 45 mg food pellets were placed on each step. Animals were placed in the box for 15 minutes sessions. At the end of the session the number of eaten (grasped) and displaced pellets was counted and recorded. Animals were tested twice a day, 4 hours apart. The first session was performed between 8–9 AM and second between 12–13 PM. The animals were trained until they grasped (ate) at least 8 pellets from each set of stairs for two consecutive sessions. Up to one week after the end of the successful training session the animals underwent transient MCAo.
Transient MCAO was performed in essentially the same manner as described in Physiological example 5 with the following modification at step i:
Two minutes prior to thread removal rats were re-anesthetized and administered IV with Dexanabinol 5 mg/kg, analogs
PRS-211,220 or PRS-211,095 at 0.5, 2.5, 5 or 10 mg/kg or vehicle 5 ml/kg. One additional group was sham-treated.
Animals were allowed to recover from the surgery for five days. The mild food deprivation was re-employed during the days following the ischemic insult. They were tested in the staircase box using the above method for 9–12 days. Animals were weighed twice a week during this period.
At the end of the evaluation period, animals were euthanized with pentobarbitone 100 mg/kg IP. The animals were perfused through the heart with heparinized 4% formaldehyde solution in PBS (pH 7.4). Brains were then removed, and kept in the same solution for at least 24h. Then the brains—from the rostral side of the cortex to the cerebellum—were sunk in 30% sucrose in PBS, cryosectioned (20 μm), dried and stained with thionin for histological evaluation of the brain infarct volume. Eight sections at the levels of: 3.3;+2.8;+1.8; +0.8; −0.4;−1.4; −2.2; and −3.4 from Bregma were measured (Swanson, Rat Brain Atlas, 1992). Sections were captured by a CCD camera (V-tech MP-470) and image analyzed (Scion image 1.62A). Infarct size was determined from the series of the 8 sections by either calculation of the infarct volume (mm3) by summing the series of mean lesion areas of two adjacent sections multiplied by the distance between them or calculation of the mean infarct size as percentage of the contralateral hemisphere size; calculation of the mean of the surviving ipsilateral side as percentage of the contralateral hemisphere size; calculation of the mean ipsilateral side ventricle as percentage of the contralateral hemisphere ventricle.
• a. The infarct size was compared using ANOVA (analysis of variance) followed by Duncan's post hoc test. • b. The staircase task performance was evaluated after collecting the data and compressing it into four blocks of six trials: […]

For the next assay, the system named is AMPA binding. Put plainly: AMPA binding to rat forebrain membranes.
In a further assay the test system is kainic acid binding. The experiment in a line: Kainic acid binding to rat forebrain membranes.
[2] abbreviates: 5 mg/kg, administered 3 hours following transient MCAo.

Consider `CCCCCCC(C)(C)c1cc(O)c2c(c1)OC(C)(C)C1CC=C(CSc3ncc[nH]3)CC21` (single isomer, unassigned; (+)) [211,092-000], for which the “infarct size (AN/AR, AN/LV), FIG. 13” value in assay [1] is on record as “clear decrease in infarct size”. Moreover, the “increase in pellet consumption, session 3” value (from here on “increase”) with transient MCAo in rats (setting [2]) is recorded as 58%; in the assay on transient MCAo in rats (5 mg/kg, administered 6 hours following transient MCAo), 30%.
Turning to `CCCCCCC(C)(C)c1cc(O)c2c(c1)OC(C)(C)[C@H]1CC=C(Cn3cccn3)C[C@H]21` [211,220-000, (+)-(3S,4S)-6,6-Dimethyl-(1,1-dimethylheptyl)-1-hydroxy-9-(pyrazolomethyl)-6a,7,10,10a-tetrahydro-6H-dibenzo[b,d]pyran], the displaced pellets parameter entry in the assay with transient MCAo in rats (0.5 mg/kg) was “improved performance”. In addition, the “increase” value is given as 27% in the assay with transient MCAo in rats (0.5 mg/kg, administered 3 hours following transient MCAo) and 40% with transient MCAo in rats (0.5 mg/kg, administered 6 hours following transient MCAo).
As for `CCCCCCC(C)(C)c1cc(O)c2c(c1)OC(C)(C)C1CC=C(Cn3ccnc3)CC21.Cl` (single isomer, unassigned; (+)) [211,095-000, (+)-(3S ,4S )-6,6-Dimethyl-(1,1-dimethylheptyl)-1-hydroxy-9-(imidazolomethyl)-6a,7,10,10a-tetrahydro-6H-dibenzo[b,d]pyran], the “staircase contralateral performance, pellet consumption (in words)” value is on record as “moderately improved pellet consumption” in the assay on transient MCAo in rats (0.5 mg/kg), “moderately improved pellet consumption” with transient MCAo in rats (2.5 mg/kg), “robust improvement” in the assay with transient MCAo in rats (5 mg/kg) and “robust improvement” with transient MCAo in rats (10 mg/kg). Also, in the assay with transient MCAo in rats (2.5 mg/kg), the “protection of infarct volume (histopathology)” value is on record as “No protection”. In the assay with transient MCAo in rats (5 mg/kg), the displaced pellets parameter entry is recorded as “improved performance”. Also, the “increase” value with transient MCAo in rats (setting [2]) worked out at 17%.
`CCCCCCC(C)(C)c1cc(O)c2c(c1)OC(C)(C)[C@H]1CC=C(CO)CC21` (stereo partly drawn) [211,007-000, 1,1 dimethyl heptyl-(3S,4S)-7-hydroxy-Δ^6-tetrahydrocannabinol]: in the assay on AMPA binding, the “inhibition of AMPA binding” value was “unable to inhibit”. For the same molecule, the “staircase contralateral performance, pellet consumption (in words)” value in the assay on transient MCAo in rats (0.5 mg/kg) is listed as “No improvement”. The displaced pellets parameter result in the assay on transient MCAo in rats (5 mg/kg) is listed as “improved performance”. For the same molecule, the “inhibition of kainic acid binding” value in the assay on kainic acid binding is “unable to inhibit”.

Values taken from US7235584B2, “Non-psychotropic cannabinoids” (Pharmos Corporation, priority 2000, dated 2007).
